Reference: patent US8362267B2, “Benzophenone thiazole derivatives useful for inhibiting formation of microtubule and method for producing the same” (Chong Kun Dang Pharmaceutical Corp., priority 2008, dated 2013)
In brackets after ≈: the same amount, converted by molar mass. Like-named read-outs stand apart in the source and are kept apart here.

What was measured:
[1] = tested on: CX-1 (human colon adenocarcinoma); assay: In vivo antitumor activity, human xenograft, colorectal cancer model CX-1; parameters: species or system BALB/c nude mice; details: for Body weight change (%) / Number of dead animals / IR (%): q4d x 4 (i.p.); for animal death / pharmaceutical effects as compared to the reference drug, AC7700 / weight loss: CX-1 xenograft model; for animal death / pharmaceutical effects as compared to the reference drug, AC7700: in words; for weight loss: as compared to the compound 516, in words
Method: (§1) BALB/c male nude mice (4 weeks) available from Central Lab Animal Inc. were used for human xenograft experiments. Sterile food and potable water were freely provided to the mice in an isolated sterile cage and the temperature of the cage was maintained at 23±0.5° C.
(§2) In vivo human xenograft experiments were performed in accordance with the following procedure. In vitro proliferated human-derived cancer cell lines (CX-1, HCT-15, A549, MKN45, calu-6) were subcutaneously injected into the abdominal region of BALB/c nude mice and were thus proliferated in vivo. After 20 to 25 days, the mice were sacrificed by cervical spine dislocation, solid cancer cells proliferated in the mice were sterilely separated and fresh cancer cells from which connective or necrotic tissues or skin were removed were collected. The fragments of tumor were transplanted to the BALB/c nude mice.
(§3) The mice in which cancer cells were proliferated to a predetermined size were collected on the 15th to 30th day after human-derived cancer models were transplanted into the BALB/c nude mice and then used for the tests. For each experimental group, the drug was injected at a dose of 0.1 mL per 10 g of mouse in accordance with a dose schedule, when tumor cells were grown to a size of 100 to 200 mm^3 after tumor transplantation.
(§4) After administration, antitumor activity was evaluated based upon an antitumor inhibition rate (IR %) of tumor growth, obtained by comparing a tumor volume measured on the final day with a tumor volume of a control group. As the reference drug, AC7700 (Sanofi-Aventis), which is currently undergoing phase III clinical trials, was used. Tumor size=(short diameter)^2×(long diameter)/2 I.R.(%)=[1−(average tumor size of drug-administered group)/(average tumor size of control group)]×100

[2] = tested on: HCT-15 (human colorectal adenocarcinoma, CCL-225); format: in vivo; details: HCT-15 xenograft, q4d x 4 (i.p.)
Method: as §1
(§5) A human cancer model, CX-1 (human colon adenocarcinoma), for xenograft experiment was obtained from the German Cancer Research Center (DKFZ), and HCT-15 (human colorectal adenocarcinoma, CCL-225) and A549 (human lung carcinoma, CCL-185) were obtained from ATCC (American Type Culture Collection, Rockville, Md., USA). Human tumor cells, MKN45 (human gastric adenocarcinoma, #80103) and calu-6 (human lung carcinoma, #30056) were obtained from KCLB (Korean Cell Line. Bank).
(§6) CX-1 was incubated in a 95% air incubator (37° C., 5% CO2) using a DMEM (Dulbecco's Modified Eagle's Medium, Gibco) supplemented with 10% heat-inactivated fetal bovine serum (Gibco) and 1% Antibiotics-Antimycotics (Gibco). Other cell lines were incubated in a 95% air incubator (37° C., 5% CO2) using an RPM1640 (Gibco BRL) medium supplemented with 10% heat-inactivated fetal bovine serum (Gibco) and 1% Antibiotics-Antimycotics (Gibco).
as §2, §3, §4

[3] = tested on: A549 (human lung carcinoma, CCL-185); assay: In vivo antitumor activity, human xenograft, lung cancer model A549
Method: as §1, §5, §6, §2, §3, §4

[4] = tested on: MKN45 (human gastric adenocarcinoma, #80103); assay: In vivo antitumor activity, human xenograft, stomach cancer model MKN45
Method: as §1, §5, §6, §2, §3, §4

[5] = tested on: calu-6 (human lung carcinoma, #30056); assay: In vivo antitumor activity, human xenograft, non-small cell lung cancer model calu-6
Method: as §1, §5, §6, §2, §3, §4

[6] = Measurement of solubility in water (HPLC); format: physicochemical; details: thermodynamic from solid; in distilled water, 25° C.
Method: The compounds of the present invention were developed to reduce toxicity caused by deposition on organ due to low solubility of compound 516, as confirmed by animal tests. Considering this, solubility of the present compounds in water was thus measured.
The compound was dissolved in acetonitrile to a concentration of 1 mg/mL and the solution was diluted with a mobile phase to a concentration of 5, 12.5, 25, 50 or 100 μg/ml.
1. The compound was added to distilled water such that the concentration of each specimen was adjusted to 10 mg/mL, stirred in a thermostat stirrer (25° C., 200 rpm) for about 7 days, filtered and diluted with a mobile phase to an optimal concentration.
2. The compound was added to distilled water such that the concentration of each specimen was adjusted to 10 mg/mL, sonicated for 30 minutes, stirred for 5 minutes, filtered, sonicated for 30 minutes again and diluted with a mobile phase to an optimal concentration.
Column temperature: 25° C.
Column: Kromasil C8 (4.6×150 mm, 5 μm)
Mobile phase: 20 mM ammonium acetate, pH 5.0/ACN (60/40)

[7] = Table 3, CX-1 xenograft, 100 mg/kg
[8] = Table 4, CX-1 xenograft, 100 mg/kg
[9] = A549 xenograft, 80 mg/kg, q4d x 4 (i.p.)
[10] = MKN45 xenograft, 80 mg/kg, q4d x 4 (i.p.)
[11] = calu-6 xenograft, 80 mg/kg, q4d x 4 (i.p.)
[12] = Table 3, CX-1 xenograft, 5 mg/kg
[13] = Table 4, CX-1 xenograft, 5 mg/kg
[14] = Table 4, CX-1 xenograft, 10 mg/kg
[15] = A549 xenograft, 5 mg/kg, q4d x 4 (i.p.)
[16] = A549 xenograft, 7.5 mg/kg, q4d x 4 (i.p.)
[17] = A549 xenograft, 10 mg/kg, q4d x 4 (i.p.)
[18] = MKN45 xenograft, 5 mg/kg, q4d x 4 (i.p.)
[19] = MKN45 xenograft, 7.5 mg/kg, q4d x 4 (i.p.)
[20] = MKN45 xenograft, 10 mg/kg, q4d x 4 (i.p.)
[21] = calu-6 xenograft, 5 mg/kg, q4d x 4 (i.p.)
[22] = calu-6 xenograft, 7.5 mg/kg, q4d x 4 (i.p.)
[23] = calu-6 xenograft, 10 mg/kg, q4d x 4 (i.p.)
[24] = Table 4, CX-1 xenograft, 20 mg/kg

## COc1ccc(/C=C\c2cc(OC)c(OC)c(OC)c2)cc1NC(=O)[C@@H](N)CO [AC7700, reference compound]
[1]; [7]
  Body weight change (%): +13.2%
  Number of dead animals: 2/6
[1]; Table 3, CX-1 xenograft, 100 mg/kg, tumor volume on final day vs control
  IR (%): 48%
[1]; [8]
  Body weight change (%): +22.8%
  IR (%): 34%
  Number of dead animals: 0/6
[2]; 80 mg/kg
  Body weight change (%): +5.5%
  IR (%): 66%
  Number of dead animals: 1/6
[3]; [9]
  Body weight change (%): +2.6%
  IR (%): 64%
  Number of dead animals: 0/7
[4]; [10]
  Body weight change (%): +7.8%
  IR (%): 55%
  Number of dead animals: 0/6
[5]; [11]
  Body weight change (%): +22.4%
  IR (%): 80%
  Number of dead animals: 0/6

## COc1cc(C(=O)c2ccc(-c3csc(N)n3)cc2-n2cncn2)cc(OC)c1OC [Compound 516, {4-(2-aminothiazol-4-yl)-2-(1H-1,2,4-triazol-1-yl)phenyl}(3,4,5-trimethoxyphenyl)methanone, reference compound]
[6]
  solubility: 0.5 mg/mL (≈ 1.14 mM)
[1]
  animal death: two animals died
  pharmaceutical effects as compared to the reference drug, AC7700: significantly superior pharmaceutical effects
[1]; [12]
  Body weight change (%): +15.2%
  Number of dead animals: 2/6
[1]; Table 3, CX-1 xenograft, 5 mg/kg, tumor volume on final day vs control
  IR (%): 36%

## COc1cc(C(=O)c2ccc(-c3csc(NC(=O)CN)n3)cc2-n2cncn2)cc(OC)c1OC [Compound 615, N-(4-(3-(1H-1,2,4-triazol-1-yl)-4-(3,4,5-trimethoxybenzoyl)phenyl)thiazol-2-yl)-2-aminoacetamide]
[6]
  solubility: 23.3 mg/mL (≈ 47.1 mM)

## COc1cc(C(=O)c2ccc(-c3csc(NC(=O)[C@@H](N)C(C)C)n3)cc2-n2cncn2)cc(OC)c1OC [Compound 624, (S)—N-(4-(3-(1H-1,2,4-triazol-1-yl)-4-(3,4,5-trimethoxybenzoyl)phenyl)thiazol-2-yl)-2-amino-3-methylbutanamide]
[6]
  solubility: 14.9 mg/mL (≈ 27.8 mM)
[1]
  weight loss: no weight loss
  animal death: no animal death
  pharmaceutical effects as compared to the reference drug, AC7700: significantly superior pharmaceutical effects
[1]; [13]
  Body weight change (%): +25.7%
  IR (%): 28%
[1]; [14]
  Body weight change (%): +14.7%
  IR (%): 64%
[2]; 5 mg/kg
  Body weight change (%): +1.8%
  IR (%): 12%
[2]; 7.5 mg/kg
  Body weight change (%): +3.2%
  IR (%): 63%
[2]; 10 mg/kg
  Body weight change (%): +6.6%
  IR (%): 69%
[3]; A549 xenograft model, in words
  pharmaceutical effects as compared with the reference drug: significantly superior pharmaceutical effects
[3]; [15]
  Body weight change (%): −1.7%
  IR (%): 39%
[3]; [16]
  Body weight change (%): +1.7%
  IR (%): 61%
[3]; [17]
  Body weight change (%): −1.2%
  IR (%): 71%
[4]; MKN45 xenograft model, in words
  pharmaceutical effects as compared with the reference drug: significantly superior pharmaceutical effects
[4]; [18]
  Body weight change (%): −11.8%
  IR (%): 21%
[4]; [19]
  Body weight change (%): +2.9%
  IR (%): 46%
[4]; [20]
  Body weight change (%): +4.3%
  IR (%): 68%
[5]; calu-6 xenograft model, in words
  pharmaceutical effects as compared with the reference drug: significantly superior pharmaceutical effects
[5]; [21]
  Body weight change (%): +26.2%
  IR (%): 41%
[5]; [22]
  Body weight change (%): +26.0%
  IR (%): 73%
[5]; [23]
  Body weight change (%): +20.6%
  IR (%): 82%

## COc1cc(C(=O)c2ccc(-c3csc(NC(=O)[C@@H](N)Cc4ccccc4)n3)cc2-n2cncn2)cc(OC)c1OC [Compound 625]
[6]
  solubility: 11 mg/mL (≈ 18.8 mM)
[1]
  weight loss: no weight loss
  animal death: no animal death
  pharmaceutical effects as compared to the reference drug, AC7700: significantly superior pharmaceutical effects
[1]; [13]
  Body weight change (%): +28.9%
  IR (%): 21%
[1]; [14]
  Body weight change (%): +24.5%
  IR (%): 43%

## COc1cc(C(=O)c2ccc(-c3csc(NC(=O)CN(C)C)n3)cc2-n2cncn2)cc(OC)c1OC [Compound 631, N-(4-(3-(1H-1,2,4-triazol-1-yl)-4-(3,4,5-trimethoxybenzoyl)phenyl)thiazol-2-yl)-2-(dimethylamino)acetamide]
[1]
  weight loss: no weight loss
  animal death: no animal death
  pharmaceutical effects as compared to the reference drug, AC7700: significantly superior pharmaceutical effects
[1]; [13]
  Body weight change (%): +24.8%
  IR (%): 23%
[1]; [14]
  Body weight change (%): +26.7%
  IR (%): 20%
[1]; [24]
  Body weight change (%): +20.9%
  IR (%): 37%

## COc1cc(C(=O)c2ccc(-c3csc(NC(=O)[C@@H](N)CC(C)C)n3)cc2-n2cncn2)cc(OC)c1OC [Compound 647, (S)—N-(4-(3-(1H-1,2,4-triazol-1-yl)-4-(3,4,5-trimethoxybenzoyl)phenyl)thiazol-2-yl)-2-amino-4-methylpentanamide]
[6]
  solubility: 12.1 mg/mL (≈ 22 mM)
